Measurements published in US9920035B2, “Heterocyclic compounds, medicaments containing said compounds, use thereof and processes for the preparation thereof” (Boehringer Ingelheim International GmbH, priority 2011, dated 2018).

Molecular target: T1, epithelial sodium channel (ENaC) (Mus musculus, UniProt Q61180+Q9WU38+Q9WU39)
T1 construct: Mouse kidney M-1 cells were cultivated in DMEM containing 5% FCS and 5 μM dexamethasone; endogenous in cells; host or cells: mouse kidney M-1 cells
T1 sequence (Q61180 1-699): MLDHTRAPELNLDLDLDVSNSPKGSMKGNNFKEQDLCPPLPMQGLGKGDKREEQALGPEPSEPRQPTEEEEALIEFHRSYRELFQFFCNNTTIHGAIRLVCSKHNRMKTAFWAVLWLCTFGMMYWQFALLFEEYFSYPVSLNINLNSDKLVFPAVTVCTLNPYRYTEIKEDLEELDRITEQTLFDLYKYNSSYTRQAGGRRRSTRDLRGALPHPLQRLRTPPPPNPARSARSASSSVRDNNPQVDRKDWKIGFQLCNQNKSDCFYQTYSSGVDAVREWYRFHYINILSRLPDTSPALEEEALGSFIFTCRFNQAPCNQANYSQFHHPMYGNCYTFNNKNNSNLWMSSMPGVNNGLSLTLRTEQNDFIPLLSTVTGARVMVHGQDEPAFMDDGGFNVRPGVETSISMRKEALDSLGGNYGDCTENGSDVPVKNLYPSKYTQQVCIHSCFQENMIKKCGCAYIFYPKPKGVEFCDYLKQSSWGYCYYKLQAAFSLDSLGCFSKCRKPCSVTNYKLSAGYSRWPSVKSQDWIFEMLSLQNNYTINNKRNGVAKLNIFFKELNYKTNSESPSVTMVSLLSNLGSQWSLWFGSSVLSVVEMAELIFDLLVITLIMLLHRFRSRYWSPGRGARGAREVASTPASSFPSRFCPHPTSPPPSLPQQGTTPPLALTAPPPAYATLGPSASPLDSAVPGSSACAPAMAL
T1 sequence (Q9WU38 1-638): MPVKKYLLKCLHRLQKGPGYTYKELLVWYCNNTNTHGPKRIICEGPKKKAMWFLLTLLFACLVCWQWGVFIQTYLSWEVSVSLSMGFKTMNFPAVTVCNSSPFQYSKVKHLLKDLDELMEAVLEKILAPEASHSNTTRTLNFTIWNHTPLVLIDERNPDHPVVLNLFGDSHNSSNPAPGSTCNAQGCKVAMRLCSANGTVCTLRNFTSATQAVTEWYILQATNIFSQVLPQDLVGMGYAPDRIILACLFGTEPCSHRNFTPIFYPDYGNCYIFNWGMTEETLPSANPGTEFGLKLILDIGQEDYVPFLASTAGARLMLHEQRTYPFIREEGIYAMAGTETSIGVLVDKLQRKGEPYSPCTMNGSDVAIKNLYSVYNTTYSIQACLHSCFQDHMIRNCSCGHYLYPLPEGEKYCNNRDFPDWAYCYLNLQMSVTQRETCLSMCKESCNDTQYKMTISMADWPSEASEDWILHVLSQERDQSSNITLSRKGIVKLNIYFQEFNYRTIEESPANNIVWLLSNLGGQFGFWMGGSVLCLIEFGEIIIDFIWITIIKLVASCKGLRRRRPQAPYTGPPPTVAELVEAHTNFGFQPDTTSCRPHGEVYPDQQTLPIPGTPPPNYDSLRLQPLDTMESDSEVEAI
T1 sequence (Q9WU39 1-655): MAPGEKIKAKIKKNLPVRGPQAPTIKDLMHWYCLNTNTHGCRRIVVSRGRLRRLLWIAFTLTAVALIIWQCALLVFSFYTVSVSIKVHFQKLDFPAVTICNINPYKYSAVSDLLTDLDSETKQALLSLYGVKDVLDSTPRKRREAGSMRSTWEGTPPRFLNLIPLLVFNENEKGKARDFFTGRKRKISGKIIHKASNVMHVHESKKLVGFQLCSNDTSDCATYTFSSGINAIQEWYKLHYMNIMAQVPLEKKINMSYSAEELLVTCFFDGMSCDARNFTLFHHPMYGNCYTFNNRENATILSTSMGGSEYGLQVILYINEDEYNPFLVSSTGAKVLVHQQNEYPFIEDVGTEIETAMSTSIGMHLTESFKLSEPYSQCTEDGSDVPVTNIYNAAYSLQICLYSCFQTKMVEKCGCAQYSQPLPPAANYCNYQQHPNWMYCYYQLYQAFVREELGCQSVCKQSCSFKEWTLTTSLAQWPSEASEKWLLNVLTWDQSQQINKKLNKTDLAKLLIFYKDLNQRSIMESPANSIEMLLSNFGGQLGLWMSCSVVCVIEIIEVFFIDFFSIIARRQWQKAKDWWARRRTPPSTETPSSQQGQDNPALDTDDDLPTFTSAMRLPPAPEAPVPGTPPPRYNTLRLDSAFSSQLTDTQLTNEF
Experiment: Ussing chamber: inhibition of amiloride sensitive short circuit current (I_sc) in M-1 cells
Type: cell-based
Details: Mouse kidney M-1 cells on transwell filters, Ussing chamber at 37° C., compound added to the apical solution
Description: Mouse kidney M-1 cells were cultivated in DMEM containing 5% FCS and 5 μM dexamethasone for 10 to 12 days on polyester transwell filters. Filters were inserted into a teflon-coated well-plate which fit into the in-house ussing chamber system. Prior to measurement the medium of M-1 cells was replaced with Caco-2 transport buffer (Invitrogen, Germany). During measurements, the Ussing chamber temperature was kept at 37° C. Short circuit currents (I_sc) were measured in the voltage-clamp mode using an in-house built amplifier (Boehringer Ingelheim, Biberach) with the software package Lab View for data acquisition and analysis. The transepithelial electrical resistance (TEER) was determined by the application of voltage steps of ±5 mV every 5 sec. Compounds were administered at a final concentration of 3 μM or at increasing concentrations (1-3-10 μM) to the apical solution. At the end of each experiment the amiloride sensitive I_SC was measured by adding 3 μM amiloride to the apical compartment. Results are expressed as inhibition in percent of the amiloride effect or as IC50. Results are listed in tables 1 to 5 and further examples listed above.

For `CS(=O)(=O)N1CCC(CCc2ccccc2)(CNC(N)=NC(=O)c2nc(Cl)c(N)nc2N)CC1` [Example 1.1], the IC50 was 34 nM.

With `CC(C)NC(=O)N1CCC(CCc2ccccc2)(CNC(N)=NC(=O)c2nc(Cl)c(N)nc2N)CC1` [Example 1.2] the IC50 was 8 nM.

With `CN1CCC(CCc2ccccc2)(CNC(N)=NC(=O)c2nc(Cl)c(N)nc2N)CC1` [Example 1.3] the IC50 was 33 nM.

`NC(=O)N1CCC(CCc2ccccc2)(CNC(N)=NC(=O)c2nc(Cl)c(N)nc2N)CC1` [Example 1.4] gave an IC50 of 27 nM.

`NC(=NC(=O)c1nc(Cl)c(N)nc1N)NCC1(CCc2ccccc2)CCN(C(=O)c2ccccc2)CC1` [Example 1.5] was tested, and the IC50 was 34 nM.

`NC(=NC(=O)c1nc(Cl)c(N)nc1N)NCC1(CCc2ccccc2)CCN(Cc2ccccc2)CC1` [Example 1.6] showed an IC50 of 40 nM.

With `CC(C)N1CCC(CCc2ccccc2)(CNC(N)=NC(=O)c2nc(Cl)c(N)nc2N)CC1` [Example 1.7] the IC50 was 63 nM.

`CC(C)NC(=O)N1CCC(CNC(N)=NC(=O)c2nc(Cl)c(N)nc2N)(Cc2ccccc2)CC1` [Example 1.8] showed an IC50 of 17 nM.

Molecule `COCC(=O)N1CCC(CCc2ccccc2)(CNC(N)=NC(=O)c2nc(Cl)c(N)nc2N)CC1` [Example 1.9] has an IC50 of 11 nM.

`CN(C)CCNC(=O)N1CCC(CCc2ccccc2)(CNC(N)=NC(=O)c2nc(Cl)c(N)nc2N)CC1` [Example 1.10] was tested, and the IC50 was 36 nM.

For `CC(C)CC(=O)N1CCC(CCc2ccccc2)(CNC(N)=NC(=O)c2nc(Cl)c(N)nc2N)CC1` [Example 1.11], the IC50 was 17 nM.

In the case of `CCNC(=O)N1CCC(CCc2ccccc2)(CN/C(N)=N/C(=O)c2nc(Cl)c(N)nc2N)CC1` [Example 1.12], the IC50 is reported as 12 nM.

Work on `CCCC(=O)N1CCC(CCc2ccccc2)(CNC(N)=NC(=O)c2nc(Cl)c(N)nc2N)CC1` [Example 1.13] yielded an IC50 of 13 nM.

`COC(=O)CCC(=O)N1CCC(CCc2ccccc2)(CNC(N)=NC(=O)c2nc(Cl)c(N)nc2N)CC1` [Example 1.14] was tested, and the IC50 was 20 nM.

Work on `C[N+]1(C)CCC(CCc2ccccc2)(CNC(N)=NC(=O)c2nc(Cl)c(N)nc2N)CC1` [Example 1.15] yielded an IC50 of 91 nM.

In the case of `COC(=O)CN1CCC(CCc2ccccc2)(CNC(N)=NC(=O)c2nc(Cl)c(N)nc2N)CC1` [Example 1.16, {4-[N′-(3,5-diamino-6-chloro-pyrazine-2-carbonyl)guanidinomethyl]-4-phenethyl-piperidin-1-yl}-acetic acid methyl ester], the IC50 is reported as 2 nM.

In the case of `COC(=O)c1ccc(CCC2(CNC(N)=NC(=O)c3nc(Cl)c(N)nc3N)CCN(C(=O)OC(C)(C)C)CC2)cc1` [Example 1.17], the IC50 is reported as 56 nM.

Work on `COC(=O)CNC(=O)N1CCC(CCc2ccccc2)(CNC(N)=NC(=O)c2nc(Cl)c(N)nc2N)CC1` [Example 1.18] yielded an IC50 of 28 nM.

`COC(=O)CCNC(=O)N1CCC(CCc2ccccc2)(CNC(N)=NC(=O)c2nc(Cl)c(N)nc2N)CC1` [Example 1.19] gave an IC50 of 24 nM.

Work on `COC(=O)CCC(=O)N1CCC(CNC(N)=NC(=O)c2nc(Cl)c(N)nc2N)(Cc2ccccc2)CC1` [Example 1.20] yielded an IC50 of 75 nM.

With `CC(C)(C)OC(=O)NCCC(=O)N1CCC(CCc2ccccc2)(CNC(N)=NC(=O)c2nc(Cl)c(N)nc2N)CC1` [Example 1.22] the IC50 was 37 nM.

`CC(C)(C)OC(=O)NCC(=O)N1CCC(CNC(N)=NC(=O)c2nc(Cl)c(N)nc2N)(Cc2ccccc2)CC1` [Example 1.24] showed an IC50 of 27 nM.

Work on `CC(C)(C)OC(=O)NCC(=O)N1CCC(CCc2ccccc2)(CNC(N)=NC(=O)c2nc(Cl)c(N)nc2N)CC1` [Example 1.25] yielded an IC50 of 18 nM.

`CC(C)(C)OC(=O)NCCCCC(=O)N1CCC(CNC(N)=NC(=O)c2nc(Cl)c(N)nc2N)(Cc2ccccc2)CC1` [Example 1.26] was tested, and the IC50 was 19 nM.

Work on `CC(C)(C)OC(=O)NCCCN1CCC(CCc2ccccc2)(CNC(N)=NC(=O)c2nc(Cl)c(N)nc2N)CC1` [Example 1.28] yielded an IC50 of 36 nM.

In the case of `CN(C)CCCN1CCC(CCc2ccccc2)(CNC(N)=NC(=O)c2nc(Cl)c(N)nc2N)CC1` [Example 1.29], the IC50 is reported as 86 nM.

`COC(=O)CN1CCC(CNC(N)=NC(=O)c2nc(Cl)c(N)nc2N)(Cc2ccccc2)CC1` [Example 1.30] was tested, and the IC50 was 70 nM.
